Key:
[1] = target: Programmed cell death protein 1/Programmed cell death 1 ligand 1 (Homo sapiens, UniProt Q9NZQ7); test: Inhibition of human PD-1 to PD-L1 protein-protein interaction by homogeneous-time resolved fluorescence assay; type: protein-complex assay
[2] = target: Programmed cell death protein 1/Programmed cell death 1 ligand 1 (Homo sapiens) (UniProt Q15116+Q9NZQ7); settings: HEK293T, dose 100.0 nM, time 30.0 min
[3] = Half-life in Sprague-Dawley rat at 10 mg/kg, iv measured upto 48 hrs by LC-MS/MS analysis; type: ADME, organism-based; settings: in vivo
[4] = Cmax in Sprague-Dawley rat at 50 mg/kg, IG measured upto 48 hrs by LC-MS/MS analysis; type: ADME, organism-based; settings: in vivo, po
[5] = AUC(0 to infinity) in Sprague-Dawley rat at 50 mg/kg, IG measured upto 48 hrs by LC-MS/MS analysis; type: ADME, organism-based; settings: in vivo, po
MC-38 = test: Antitumor activity against mouse MC38 cells expressing hPD-L1 implanted in PD-1/PD-L1 humanized C57BL/6 mouse assessed as tumor growth inhibition at 50 mg/kg, IG; type: functional; settings: MC-38, po, read-out: TGI
[6] = Apparent volume of distribution in Sprague-Dawley rat at 50 mg/kg, IG measured upto 48 hrs by LC-MS/MS analysis; type: ADME, organism-based; settings: in vivo, po
[7] = Tmax in Sprague-Dawley rat at 50 mg/kg, IG measured upto 48 hrs by LC-MS/MS analysis; type: ADME, organism-based; settings: in vivo, po
[8] = Clearance in Sprague-Dawley rat at 10 mg/kg, iv measured upto 48 hrs by LC-MS/MS analysis; type: ADME, organism-based; settings: in vivo
[9] = AUC(0 to t) in Sprague-Dawley rat at 50 mg/kg, IG measured upto 48 hrs by LC-MS/MS analysis; type: ADME, organism-based; settings: in vivo, po
[10] = Half-life in Sprague-Dawley rat at 50 mg/kg, IG measured upto 48 hrs by LC-MS/MS analysis; type: ADME, organism-based; settings: in vivo, po
[11] = AUC(0 to t) in Sprague-Dawley rat at 10 mg/kg, iv measured upto 48 hrs by LC-MS/MS analysis; type: ADME, organism-based; settings: in vivo
[12] = AUC(0 to infinity) in Sprague-Dawley rat at 10 mg/kg, iv measured upto 48 hrs by LC-MS/MS analysis; type: ADME, organism-based; settings: in vivo
[13] = Oral bioavilability in Sprague-Dawley rat at 50 mg/kg measured upto 48 hrs by LC-MS/MS analysis; type: ADME, organism-based; settings: in vivo
[14] = Clearance in Sprague-Dawley rat at 50 mg/kg, IG measured upto 48 hrs by LC-MS/MS analysis; type: ADME, organism-based; settings: in vivo, po
[15] = Cytotoxicity against human PBMCs at 1 to 4 uM by CCK-8 assay; type: toxicity, cell-based; settings: pbmc, dose 1-4 µM
[16] = Tmax in Sprague-Dawley rat at 10 mg/kg, iv measured upto 48 hrs by LC-MS/MS analysis; type: ADME, organism-based; settings: in vivo
[17] = Apparent volume of distribution in Sprague-Dawley rat at 10 mg/kg, iv measured upto 48 hrs by LC-MS/MS analysis; type: ADME, organism-based; settings: in vivo
[18] = Cmax in Sprague-Dawley rat at 10 mg/kg, iv measured upto 48 hrs by LC-MS/MS analysis; type: ADME, organism-based; settings: in vivo

Programmed cell death protein 1/Programmed cell death 1 ligand 1, sequence (Q15116 whole entry): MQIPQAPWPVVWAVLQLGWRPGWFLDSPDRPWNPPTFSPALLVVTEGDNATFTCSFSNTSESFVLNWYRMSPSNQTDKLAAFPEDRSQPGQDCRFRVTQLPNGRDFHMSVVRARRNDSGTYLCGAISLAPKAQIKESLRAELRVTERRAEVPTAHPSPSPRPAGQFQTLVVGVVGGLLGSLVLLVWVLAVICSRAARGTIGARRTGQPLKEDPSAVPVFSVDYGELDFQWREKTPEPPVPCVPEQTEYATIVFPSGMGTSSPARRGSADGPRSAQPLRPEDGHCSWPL
Programmed cell death protein 1/Programmed cell death 1 ligand 1, sequence (Q9NZQ7 whole entry): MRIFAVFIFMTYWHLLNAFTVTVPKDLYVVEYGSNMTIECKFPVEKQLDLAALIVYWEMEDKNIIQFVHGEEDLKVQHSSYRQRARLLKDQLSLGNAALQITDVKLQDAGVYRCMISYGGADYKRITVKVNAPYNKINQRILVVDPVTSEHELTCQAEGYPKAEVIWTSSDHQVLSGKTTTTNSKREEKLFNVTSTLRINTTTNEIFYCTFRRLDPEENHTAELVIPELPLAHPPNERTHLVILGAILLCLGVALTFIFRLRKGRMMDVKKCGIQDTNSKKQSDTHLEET

Structure (SMILES)	IC50 [1] [nM]	further results
N#Cc1cncc(COc2cc(OCc3cccc(-c4ccc5c(c4)OCCO5)c3C(F)F)ccc2CNCC(O)CO)c1 (stereo not drawn)	9.5	inhibition [2]: 17%
N#Cc1cncc(COc2cc(OCc3cccc(-c4ccc5c(c4)OCCO5)c3CF)ccc2CN2CCCCC2C(=O)O)c1 (stereo not drawn)	100	–
N#Cc1cncc(COc2cc(OCc3cccc(-c4ccccc4)c3C(F)(F)F)ccc2CN[C@@H](CO)C(=O)O)c1	58.6	–
N#Cc1cncc(COc2cc(OCc3cccc(-c4ccc5c(c4)OCCO5)c3C(F)F)ccc2CN2CCC[C@H]2C(=O)O)c1	19.4	inhibition [2]: 21.7%
N#Cc1cncc(COc2cc(OCc3cccc(-c4ccc5c(c4)OCCO5)c3CF)ccc2CN[C@@H](CO)C(=O)O)c1	19.7	inhibition [2]: 22%
N#Cc1cccc(COc2cc(OCc3cccc(-c4ccccc4F)c3CF)ccc2CNCCO)c1	100	–
COc1nc(OCc2cccc(-c3ccccc3)c2C)ccc1CNCCNC(C)=O	–	t1/2 [3]: 1.94 h; Cmax [4]: 5730 ng/mL; AUC(0-inf) [5]: 16900 ng·h/mL; inhibition in vivo at 50 mg/kg (MC-38): 44.6%; Vz [6]: 56.85 L/kg; Tmax [7]: 2.1 h; CL [8]: 19.2 mL/min/kg; AUC(0-t) at 48 h [9]: 16800 ng·h/mL; t1/2 [10]: 3.13 h; AUC(0-t) at 48 h [11]: 8600 ng·h/mL; AUC(0-inf) [12]: 8710 ng·h/mL; bioavailability [13]: 39.1%; CL [14]: 49.2 mL/min/kg; Activity [15]: Non-Toxic; Tmax [16]: 7.2 min; inhibition [2]: 34.6%; Vz [17]: 12.46 L/kg; Cmax [18]: 3350 ng/mL
N#Cc1cccc(COc2cc(OCc3cccc(-c4ccccc4F)c3C(F)F)ccc2CN[C@@H](CO)C(=O)O)c1	100	–
CC(=O)NCCNCc1ccc(OCc2cccc(-c3ccccc3F)c2CF)cc1OCc1cncc(C#N)c1	31.4	–
N#Cc1cncc(COc2cc(OCc3cccc(-c4ccc5c(c4)OCCO5)c3CF)ccc2CNCC(=O)O)c1	100	–
N#Cc1cncc(COc2cc(OCc3cccc(-c4ccccc4F)c3CF)ccc2CN2CC(C(=O)O)C2)c1	18.8	inhibition [2]: 20.5%
N#Cc1cccc(COc2cc(OCc3cccc(-c4ccccc4F)c3C(F)F)ccc2CNCCO)c1	100	–
N#Cc1cncc(COc2cc(OCc3cccc(-c4ccccc4F)c3CF)ccc2CN2CCCCC2C(=O)O)c1 (stereo not drawn)	27	–
N#Cc1cncc(COc2cc(OCc3cccc(-c4ccccc4F)c3C(F)F)ccc2CNCC(=O)O)c1	154	–
CN(C)CCNCc1ccc(OCc2cccc(-c3ccc4c(c3)OCCO4)c2C(F)F)cc1OCc1cccnc1	100	–
N#Cc1cncc(COc2cc(OCc3cccc(-c4ccccc4F)c3C(F)F)ccc2CN2CCC[C@H]2C(=O)O)c1	120	–
N#Cc1cncc(COc2cc(OCc3cccc(-c4ccc5c(c4)OCCO5)c3CF)ccc2CN2CCC(C(=O)O)C2)c1 (stereo not drawn)	14.9	inhibition [2]: 18.4%
N#Cc1cncc(COc2cc(OCc3cccc(-c4ccccc4F)c3CF)ccc2CN2CCC[C@H]2C(=O)O)c1	6.9	inhibition [2]: 15.4%
N#Cc1cncc(COc2cc(OCc3cccc(-c4ccccc4F)c3CF)ccc2CN2CCC(O)C2)c1 (stereo not drawn)	55.8	–

Structure (SMILES)	IC50 [1] [nM]	further results
CC(=O)NCCNCc1ccc(OCc2cccc(-c3cc(F)ccc3F)c2CF)cc1OCc1cncc(C#N)c1	100	–
N#Cc1cncc(COc2cc(OCc3cccc(-c4ccccc4F)c3CF)ccc2CNCCO)c1	24.9	–
OCC(O)CNCc1ccc(OCc2cccc(-c3ccc4c(c3)OCCO4)c2C(F)F)cc1OCc1cccnc1 (stereo not drawn)	67.5	–
N#Cc1cncc(COc2cc(OCc3cccc(-c4ccccc4F)c3CF)ccc2CN[C@@H](CO)C(=O)O)c1	12.7	–
N#Cc1cncc(COc2cc(OCc3cccc(-c4ccccc4F)c3CF)ccc2CN2CCC(C(=O)O)C2)c1 (stereo not drawn)	25.2	–
CN(C)CCNCc1ccc(OCc2cccc(-c3ccc4c(c3)OCCO4)c2C(F)F)cc1OCc1cncc(C#N)c1	29.5	–
N#Cc1cncc(COc2cc(OCc3cccc(-c4ccc5c(c4)OCCO5)c3CF)ccc2CNCCO)c1	11.9	inhibition [2]: 17.3%
CC(=O)NCCNCc1ccc(OCc2cccc(-c3ccc4c(c3)OCCO4)c2C(F)F)cc1OCc1cncc(C#N)c1	17.2	inhibition [2]: 18.4%
N#Cc1cccc(COc2cc(OCc3cccc(-c4ccccc4F)c3CF)ccc2CN2CCC[C@H]2C(=O)O)c1	10	–
CC(=O)NCCNCc1ccc(OCc2cccc(-c3ccc4c(c3)OCCO4)c2CF)cc1OCc1cncc(C#N)c1	24.9	–
N#Cc1cncc(COc2cc(OCc3cccc(-c4ccccc4F)c3CF)ccc2CN[C@H](CO)C(=O)O)c1	10	–
CC(=O)NCCNCc1ccc(OCc2cccc(-c3ccccc3F)c2CF)cc1OCc1cccc(C#N)c1	100	–
N#Cc1cncc(COc2cc(OCc3cccc(-c4ccccc4F)c3C(F)F)ccc2CNCCO)c1	41.9	–
CC(=O)NCCNCc1ccc(OCc2cccc(-c3ccccc3F)c2C(F)F)cc1OCc1cncc(C#N)c1	100	–
N#Cc1cncc(COc2cc(OCc3cccc(-c4cc(F)ccc4F)c3CF)ccc2CNCCO)c1	42	–
N#Cc1cncc(COc2cc(OCc3cccc(-c4cc(F)ccc4F)c3CF)ccc2CN[C@@H](CO)C(=O)O)c1	20.9	–
N#Cc1cncc(COc2cc(OCc3cccc(-c4ccccc4F)c3C(F)F)ccc2CN[C@@H](CO)C(=O)O)c1	16.9	–
N#Cc1cncc(COc2cc(OCc3cccc(-c4ccccc4)c3C(F)(F)F)ccc2CNCCO)c1	93.8	–
N#Cc1cncc(COc2cc(OCc3cccc(-c4ccccc4F)c3CF)ccc2CNCC(=O)O)c1	28.4	–

Source: ChEMBL document CHEMBL5608200, “Design, synthesis, and evaluation of antitumor activity of 2-arylmethoxy-4-(2-fluoromethyl-biphenyl-3-ylmethoxy) benzylamine derivatives as PD-1/PD-l1 inhibitors” (Eur J Med Chem, 2024)
